Key:
[1] = tested on: p-IKKα levels in L363 (NIK translocated multiple myeloma) cells; test: Effect of compounds on p-IKKα levels in L363 cells (AlphaLISA SureFire Ultra); format: cell-based, human; conditions: Homo sapiens, L-363, 6 h, BAFF stimulated, MG132, 6 h, average of values, read-out: Assay 2 IC50
Outline: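 Inhibition of p-IKKα (Ser176/180) read by AlphaLISA after 6 h, 37 °C compound exposure (11-point 1:3 series, 0.3% DMSO) of L363 cells pre-incubated overnight ± 250 ng/ml BAFF and plated ± BAFF ± 10 μM MG132. Normalised to BAFF/MG132/DMSO and unstimulated controls; IC50 by sigmoidal fitting, duplicates.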

[2] = biological target: recombinant human NF-kappaB-inducing kinase (NIK/MAP3K14) (Homo sapiens (Human), UniProt Q99558); test: Inhibition of auto-phosphorylation of recombinant human NIK/MAP3K14 (AlphaScreen); format: biochemical; conditions: NIK auto-phosphorylation, 5 μM ATP, 1 nM NIK, 2 h at 25° C.; average of values
Sequence of recombinant human NF-kappaB-inducing kinase (NIK/MAP3K14) (Q99558 whole entry): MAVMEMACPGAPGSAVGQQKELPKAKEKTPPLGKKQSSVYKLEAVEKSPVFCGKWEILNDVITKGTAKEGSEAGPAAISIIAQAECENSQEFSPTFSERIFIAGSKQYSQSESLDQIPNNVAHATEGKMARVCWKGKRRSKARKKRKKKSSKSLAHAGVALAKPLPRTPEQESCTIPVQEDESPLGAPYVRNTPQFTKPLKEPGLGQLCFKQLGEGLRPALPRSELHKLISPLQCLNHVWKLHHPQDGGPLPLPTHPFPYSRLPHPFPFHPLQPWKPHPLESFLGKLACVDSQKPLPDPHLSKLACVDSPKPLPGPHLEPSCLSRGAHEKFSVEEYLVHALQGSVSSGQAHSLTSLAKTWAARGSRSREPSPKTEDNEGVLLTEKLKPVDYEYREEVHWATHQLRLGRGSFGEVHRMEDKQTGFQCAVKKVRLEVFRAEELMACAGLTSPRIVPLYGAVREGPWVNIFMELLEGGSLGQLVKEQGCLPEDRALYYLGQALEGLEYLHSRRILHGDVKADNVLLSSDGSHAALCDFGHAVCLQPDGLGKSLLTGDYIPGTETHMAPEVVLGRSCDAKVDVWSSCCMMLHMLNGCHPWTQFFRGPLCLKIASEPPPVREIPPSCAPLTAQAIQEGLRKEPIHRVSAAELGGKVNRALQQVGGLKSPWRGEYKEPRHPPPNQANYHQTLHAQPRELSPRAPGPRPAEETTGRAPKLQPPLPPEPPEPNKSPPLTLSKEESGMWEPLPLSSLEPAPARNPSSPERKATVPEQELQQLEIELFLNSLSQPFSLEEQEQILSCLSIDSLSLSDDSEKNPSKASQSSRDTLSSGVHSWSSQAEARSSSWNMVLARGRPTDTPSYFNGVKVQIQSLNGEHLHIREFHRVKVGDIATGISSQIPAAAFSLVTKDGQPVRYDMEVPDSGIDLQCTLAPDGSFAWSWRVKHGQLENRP
Outline: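 AlphaScreen read-out (anti-phospho-IKK Ser176/180 antibody, Protein A acceptor and glutathione donor beads) of NIK auto-phosphorylation. Reaction: 1 nM enzyme, 5 μM ATP, Tris pH 7.5 buffer with Mg2+ and vanadate, 2 h at 25° C., final DMSO 0.7%. IC50 came from a sigmoidal curve fit.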

| Structure (SMILES) | IC50 [1] [nM] | IC50 [2] [nM] |
| --- | --- | --- |
| Cc1nc(N)c2nc(-c3cccc(C#CC(C)(O)c4c[nH]cn4)c3)ccc2n1 (racemic) [Example 202, racemic-4-(3-(4-Amino-2-methylpyrido[3,2-d]pyrimidin-6-yl)phenyl)-2-(1H-imidazol-4-yl)but-3-yn-2-ol] | 280 | 1 |
| Cc1ncc(Br)c2ccc(-c3cccc(C#C[C@]4(O)CCN(C)C4=O)c3)nc12 [Example 249, (R)-3-((3-(5-Bromo-8-methyl-1,7-naphthyridin-2-yl)phenyl)ethynyl)-3-hydroxy-1-methylpyrrolidin-2-one] | 470 | 7.3 |
| CN1CC[C@@](O)(C#Cc2cccc(-c3ccc4[nH]nc(N)c4n3)c2)C1=O [Example 22, (R)-3-[2-[3-(3-Amino-1H-pyrazolo[4,3-b]pyridin-5-yl)phenyl]ethynyl]-3-hydroxy-1-methyl-pyrrolidin-2-one] | 480 | 4.3 |
| CN1CC[C@@](O)(C#Cc2cccc(-c3ccc4nc[nH]c(=O)c4n3)c2)C1=O [Example 221, (R)-6-(3-((3-Hydroxy-1-methyl-2-oxopyrrolidin-3-yl)ethynyl)phenyl)pyrido[3,2-d]pyrimidin-4(3H)-one] | > 5000 | 630 |
| Cc1nc(N)c2nc(-c3cccc(C#C[C@@]4(O)C(=O)N(C)C[C@@H]4C)c3)ccc2n1 (stereo in doubt) [Example 291, (3R,4S*)-3-((3-(4-Amino-2-methylpyrido[3,2-d]pyrimidin-6-yl)phenyl)ethynyl)-3-hydroxy-1,4-dimethylpyrrolidin-2-one] | 1390 | 54 |
| CN1CC[C@@](O)(C#Cc2cccc(-c3ncc4ccnc(N5CCC5)c4n3)c2)C1=O [Example 247, (R)-3-((3-(8-(Azetidin-1-yl)pyrido[3,4-d]pyrimidin-2-yl)phenyl)ethynyl)-3-hydroxy-1-methylpyrrolidin-2-one] | > 5000 | 850 |

Now those with a lower IC50 [1], led by results:

| IC50 [1] [nM] | IC50 [2] [nM] | Structure (SMILES) |
| --- | --- | --- |
| 71 | 1.8 | Cc1cc2ncnc(N)c2nc1-c1cccc(C#C[C@]2(O)CCN(C)C2=O)c1 [Example 189, (R)-3-((3-(4-Amino-7-methylpyrido[3,2-d]pyrimidin-6-yl)phenyl)ethynyl)-3-hydroxy-1-methylpyrrolidin-2-one] |
| 28 | 0.7 | Cc1ccc(C#C[C@]2(O)CCN(C)C2=O)cc1-c1ccc2ncnc(N)c2n1 [Example 3, (R)-3-[2-[3-(4-Aminopyrido[3,2-d]pyrimidin-6-yl)-4-methyl-phenyl]ethynyl]-3-hydroxy-1-methyl-pyrrolidin-2-one] |
| 18 | 3.1 | CN1CC[C@@](O)(C#Cc2cccc(-c3cc(N(C)C)c4ncnc(N)c4n3)c2)C1=O [Example 295, (R)-3-[2-[3-[4-Amino-8-(dimethylamino)pyrido[3,2-d]pyrimidin-6-yl]phenyl]ethynyl]-3-hydroxy-1-methyl-pyrrolidin-2-one] |
| 6.5 | ≤ 0.5 | C[C@@](O)(C#Cc1cccc(-c2ccc3ncnc(N)c3n2)c1)c1nccs1 [Example 93, (R)-4-(3-(4-Aminopyrido[3,2-d]pyrimidin-6-yl)phenyl)-2-(thiazol-2-yl)but-3-yn-2-ol] |
| 4.2 | ≤ 0.5 | CN1CC[C@@](O)(C#Cc2cccc(-c3ncc4c(Br)cnc(N)c4n3)c2)C1=O [Example 94, (R)-3-((3-(8-Amino-5-bromopyrido[3,4-d]pyrimidin-2-yl)phenyl)ethynyl)-3-hydroxy-1-methylpyrrolidin-2-one] |
| 3.1 | 0.9 | [2H]C([2H])([2H])c1cc(-c2cccc(C#C[C@]3(O)CCN(C)C3=O)c2)nc2c(N)ncnc12 [Example 286, (R)-3-((3-(4-Amino-8-(methyl-da)pyrido[3,2-d]pyrimidin-6-yl)phenyl)ethynyl)-3-hydroxy-1-methylpyrrolidin-2-one] |
| 0.7 | ≤ 0.5 | Cc1cc(-c2cccc(C#C[C@]3(O)CCN(C)C3=O)c2)nc2c(N)ncnc12 [Example 28, (R)-3-((3-(4-Amino-8-methylpyrido[3,2-d]pyrimidin-6-yl)phenyl)ethynyl)-3-hydroxy-1-methylpyrrolidin-2-one] |

— patent US20240199605A1, “SMALL MOLECULAR INHIBITORS OF NF-kB INDUCING KINASE” (Janssen Pharmaceutica NV, priority 2019, published 2024)
